A word on the IC50: it is the concentration that gives 50% inhibition.

In patent publication US8673894B2 (Hoffmann-La Roche Inc., priority 2010, dated 2014) one finds IC50 data, which are given here for 18 compounds.

Assay [1] deals with T1, endogenous cellular BACE2 (Rattus norvegicus, UniProt Q6IE75).
T1 construct: endogenous cellular BACE2 in the Ins1e rat cell line; endogenous in cells; host or cells: INS-TMEM27 (INS1e-derived rat insulinoma cell line with doxycycline-inducible full-length human TMEM27)
T1 sequence (Q6IE75 63-514): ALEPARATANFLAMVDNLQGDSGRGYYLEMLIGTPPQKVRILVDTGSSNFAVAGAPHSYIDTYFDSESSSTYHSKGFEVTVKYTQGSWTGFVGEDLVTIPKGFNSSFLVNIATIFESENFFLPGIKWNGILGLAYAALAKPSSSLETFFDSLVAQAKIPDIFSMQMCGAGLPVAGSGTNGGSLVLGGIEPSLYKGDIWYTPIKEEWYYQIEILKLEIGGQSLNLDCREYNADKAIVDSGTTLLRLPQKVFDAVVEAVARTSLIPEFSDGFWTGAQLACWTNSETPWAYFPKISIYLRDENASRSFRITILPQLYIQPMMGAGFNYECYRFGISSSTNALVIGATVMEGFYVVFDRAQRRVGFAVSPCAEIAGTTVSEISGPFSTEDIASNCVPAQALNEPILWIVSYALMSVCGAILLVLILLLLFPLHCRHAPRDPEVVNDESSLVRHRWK
Kind of assay: Assay for BACE inhibition by measuring cellular TMEM27 cleavage. The assay is classed as cell-based. The settings on record: INS-TMEM27 (INS1e-derived) cells, shed human TMEM27 in supernatant by ELISA. The source says: Assay for BACE Inhibition by Measuring Cellular TMEM27 Cleavage:
The assay uses the principle of inhibition of human TMEM27 cleavage by endogenous cellular BACE2 in the Ins1e rat cell line and shedding from the cell surface into the culture medium, followed by detection in an ELISA assay. Inhibition of BACE2 prevents the cleavage and shedding in a dose-dependent manner.
The stable cell line “INS-TMEM27” represents an INS1e-derived cell line with inducible expression (using the TetOn system) of full-length hTMEM27 in a doxycycline-dependent manner. The cells are cultured throughout the experiment in RPMI1640+ Glutamax (Invitrogen) Penicillin/Streptomycin, 10% Fetal bovine serum, […], […], 100 micrograms/ml G418 and 100 microgram/ml hygromycin and are grown inadherent culture at 37° C. in a standard CO2 cell culture incubator.
INS-TMEM27 cells are seeded in 96-well plates. After 2 days in culture, BACE2 inhibitor is added in a range of concentrations as required by the assay and after a further two hours, doxycycline is added to a final concentration of 500 ng/ml. The cells are incubated for a further 46 hours and the supernatant harvested for detection of shed TMEM27.
An ELISA assay (using a pair of mouse anti-human-TMEM27 antibodies, raised against the extracellular domain of TMEM27) is used for detection of TMEM27 in the culture medium. An EC50 for BACE2 inhibition is calculated using the ELISA readout for each inhibitor concentration with standard curve-fitting software such as XLFit for the Excel spreadsheet program.

For assay [2], the system named is Aβ40. The assay can be described thus: Cellular Aβ-lowering assay. The assay is classed as cell-based. The settings on record: HEK293 cells stably expressing human APP695, Aβ40 in supernatant by ELISA after 18-20 hrs; read-out: Cellular assay Abeta40 IC50. Here is the method: Cellular Aβ-Lowering Assay:
Human HEK293 cells which are stably transfected with a vector expressing a cDNA of the human APP wt gene (APP695) were used to assess the potency of the compounds in a cellular assay. The cells were seeded in 96-well microtiter plates in cell culture medium (Iscove, plus 10% (v/v) fetal bovine serum, glutamine, penicillin/streptomycin) to about 80% confluence and the compounds were added at a 10× concentration in 1/10 volume of medium without FCS containing 8% DMSO (final concentration of DMSO was kept at 0.8% v/v). After 18-20 hrs incubation at 37° C. and 5% CO2 in a humidified incubator the culture supernatant was harvested for the determination of Aβ40 concentrations. 96well ELISA plates (e.g., Nunc MaxiSorb) were coated with monoclonal antibody which specifically recognize the C-terminal end of Aβ40 (Brockhaus et al., NeuroReport 9, 1481-1486; 1998). After blocking of non-specific binding sites with e.g. 1% BSA and washing, the culture supernatants were added in suitable dilutions together with a horseradish peroxidase-coupled Aβ detection antibody (e.g., antibody 4G8, Senetek, Maryland Heights, Mo.) and incubated for 5 to 7 hrs. Subsequently the wells of the microtiter plate were washed extensively with Tris-buffered saline containing 0.05% Tween 20 and the assay was developed with tetramethylbenzidine/H2O2 in citric acid buffer. After stopping the reaction with one volume 1 N H2SO4 the reaction was measured in an ELISA reader at 450 nm wavelength. The concentrations of Aβ in the culture supernatants were calculated from a standard curve obtained with known amounts of pure Aβ peptide.

Structures can show the parent of a compound that is named as a salt. Bounds are passed on as bounds.

For the compound `C[C@]1(c2cc(NC(=O)c3ccc(OC(F)F)cn3)ccc2F)N=C(N)COCC1(F)F` [Example 48, (R)-N-(3-(3-amino-6,6-difluoro-5-methyl-2,5,6,7-tetrahydro-1,4-oxazepin-5-yl)-4-fluorophenyl)-5-(difluoromethoxy)picolinamide formate], the half-inhibitory concentration (IC50) in assay [1] worked out at 88 nM; in assay [2], 1 nM.
The like results for `C[C@@]1(c2cc(NC(=O)c3ncccc3F)ccc2F)CCOCC(N)=N1` [Example 6, 3-Fluoro-pyridine-2-carboxylic acid [3-((S)-3-amino-5-methyl-2,5,6,7-tetrahydro-[1,4]oxazepin-5-yl)-4-fluoro-phenyl]-amide formate] were, in that order, 3.6 nM and 36 nM.
Take `C[C@]1(c2cc(NC(=O)c3ccc(Cl)cn3)ccc2F)N=C(N)COC[C@@H]1F` [Example 61, N-(3-((5R,6R)-3-amino-6-fluoro-5-methyl-2,5,6,7-tetrahydro-1,4-oxazepin-5-yl)-4-fluorophenyl)-5-chloropicolinamide]: the results for the half-maximal inhibitory concentration (IC50) in assay [1] and in assay [2] were 1 nM and 0.2 nM, respectively.
The corresponding values for `CC[C@]1(c2cc(NC(=O)c3ncc(F)cc3C)ccc2F)N=C(N)COCC1(F)F` [Example 102, (R)-N-(3-(3-Amino-5-ethyl-6,6-difluoro-2,5,6,7-tetrahydro-1,4-oxazepin-5-yl)-4-fluorophenyl)-5-fluoro-3-methylpicolinamide] are 2200 nM and 33 nM.
Turning to `C[C@]1(c2cc(NC(=O)c3ncc(C(F)(F)F)cc3F)ccc2F)N=C(N)COCC1(F)F` [Example 88, (R)-N-(3-(3-Amino-6,6-difluoro-5-methyl-2,5,6,7-tetrahydro-1,4-oxazepin-5-yl)-4-fluorophenyl)-3-fluoro-5-(trifluoromethyl)picolinamide formate], the IC50 stood at 354 nM in assay [1] and 5 nM in assay [2].
As to `CC1(C)C[C@@](C)(c2cc(NC(=O)c3ccc(Cl)cn3)ccc2F)N=C(N)CO1` [Example 10, 5-Chloro-pyridine-2-carboxylic acid [3-((S)-3-amino-5,7,7-trimethyl-2,5,6,7-tetrahydro-[1,4]oxazepin-5-yl)-4-fluoro-phenyl]-amide], the results for the IC50 in assay [1] and in assay [2] were 1.6 nM and 1.1 nM, respectively.
In the case of `NC1=N[C@@]2(c3cccc(NC(=O)c4ccc(OCC(F)(F)F)cn4)c3)C[C@H]2COC1` (racemic) [Example 4, 5-(2,2,2-Trifluoro-ethoxy)-pyridine-2-carboxylic acid [3-((1SR,7RS)-3-amino-5-oxa-2-aza-bicyclo[5.1.0]oct-2-en-1-yl)-phenyl]-amide], the results for the IC50 in assay [1] and in assay [2] were 8900 nM and 630 nM, respectively.
Consider `C[C@@]1(c2cc(NC(=O)c3ncc(Cl)cc3Cl)ccc2F)CCOCC(N)=N1` [Example 8, 3,5-Dichloro-pyridine-2-carboxylic acid [3-((S)-3-amino-5-methyl-2,5,6,7-tetrahydro-[1,4]oxazepin-5-yl)-4-fluoro-phenyl]-amide], for which the results for the IC50 in assay [1] and in assay [2] were 1.8 nM and 2.5 nM, respectively.
Turning to `C[C@]1(c2cc(NC(=O)c3ncc(Cl)cc3Cl)ccc2F)N=C(N)COCC1(F)F` [Example 39, (R)-N-(3-(3-amino-6,6-difluoro-5-methyl-2,5,6,7-tetrahydro-1,4-oxazepin-5-yl)-4-fluorophenyl)-3,5-dichloropicolinamide formate], the IC50 in assay [1] came to 3 nM; in assay [2] it was 2.6 nM.
The like results for `NC1=N[C@@]2(c3cccc(NC(=O)c4ncc(C(F)(F)F)cc4Cl)c3)C[C@H]2COC1` (stereo in doubt) [Example 51, 3-Chloro-5-trifluoromethyl-pyridine-2-carboxylic acid [3-((R)-3-amino-5-oxa-2-aza-bicyclo[5.1.0]oct-2-en-1-yl)-phenyl]-amide; salt with trifluoroacetic acid] were, in that order, 8590 nM and 100 nM.
The like results for `C[C@]1(c2cc(NC(=O)c3cnc(C(F)F)cn3)ccc2F)N=C(N)COCC1(F)F` [Example 105, (R)-N-(3-(3-Amino-6,6-difluoro-5-methyl-2,5,6,7-tetrahydro-1,4-oxazepin-5-yl)-4-fluorophenyl)-5-(difluoromethyl)pyrazine-2-carboxamide formate] were, in that order, 378 nM and 13 nM.
Regarding `Cc1ocnc1C(=O)Nc1ccc(F)c([C@@]2(C)N=C(N)COCC2(F)F)c1` [Example 98, (R)-N-(3-(3-Amino-6,6-difluoro-5-methyl-2,5,6,7-tetrahydro-1,4-oxazepin-5-yl)-4-fluorophenyl)-5-methyloxazole-4-carboxamide], the IC50 in assay [1] came out at 131 nM; in assay [2] it was 39 nM.
Take `CC[C@]1(c2cc(NC(=O)c3ncccc3C(F)(F)F)ccc2F)N=C(N)COCC1(F)F` [Example 77, (R)-N-(3-(3-Amino-5-ethyl-6,6-difluoro-2,5,6,7-tetrahydro-1,4-oxazepin-5-yl)-4-fluorophenyl)-3-(trifluoromethyl)picolinamide]: the IC50 in assay [1] stood at 179 nM; in assay [2], 750 nM.
The corresponding values for `NC1=N[C@@]2(c3cc(NC(=O)c4ccc(OCC(F)(F)F)cn4)ccc3F)C[C@H]2COC1` (racemic) [Example 2, 5-(2,2,2-Trifluoro-ethoxy)-pyridine-2-carboxylic acid [3-((1SR,7RS)-3-amino-5-oxa-2-aza-bicyclo[5.1.0]oct-2-en-1-yl)-4-fluoro-phenyl]-amide] are > 10000 nM and 2200 nM.
As to `C[C@]1(c2cc(NC(=O)c3ccc(OCC(F)(F)F)cn3)ccc2F)N=C(N)COCC1(F)F` [Example 49, (R)-N-(3-(3-amino-6,6-difluoro-5-methyl-2,5,6,7-tetrahydro-1,4-oxazepin-5-yl)-4-fluorophenyl)-5-(2,2,2-trifluoroethoxy)picolinamide formate], the IC50 in assay [1] amounted to 1110 nM; in assay [2], 22 nM.
As for `C[C@]1(c2cc(NC(=O)c3ccc(F)cn3)ccc2F)N=C(N)COCC1(F)F` [Example 29, (R)-N-(3-(3-amino-6,6-difluoro-5-methyl-2,5,6,7-tetrahydro-1,4-oxazepin-5-yl)-4-fluorophenyl)-5-fluoropicolinamide formate], the IC50 in assay [1] amounted to 3.3 nM; in assay [2], 5.3 nM.
On to `CC[C@]1(c2cc(NC(=O)c3n[nH]cc3C)ccc2F)N=C(N)COCC1(F)F` [Example 92, (R)-N-(3-(3-Amino-5-ethyl-6,6-difluoro-2,5,6,7-tetrahydro-1,4-oxazepin-5-yl)-4-fluorophenyl)-4-methyl-1H-pyrazole-3-carboxamide], for which the results for the IC50 in assay [1] and in assay [2] were 731 nM and 2800 nM, respectively.
As to `C[C@]1(c2cc(NC(=O)c3nn(C(F)F)cc3Cl)ccc2F)N=C(N)COC[C@@H]1F` [Example 115, N-(3-((5R,6R)-3-Amino-6-fluoro-5-methyl-2,5,6,7-tetrahydro-1,4-oxazepin-5-yl)-4-fluorophenyl)-4-chloro-1-(difluoromethyl)-1H-pyrazole-3-carboxamide], the IC50 in assay [1] was 6 nM; in assay [2], 3.8 nM.
